Each structure is given as a SMILES string.

Chain of Voltage-gated inwardly rectifying potassium channel KCNH2 (Q12809 whole entry): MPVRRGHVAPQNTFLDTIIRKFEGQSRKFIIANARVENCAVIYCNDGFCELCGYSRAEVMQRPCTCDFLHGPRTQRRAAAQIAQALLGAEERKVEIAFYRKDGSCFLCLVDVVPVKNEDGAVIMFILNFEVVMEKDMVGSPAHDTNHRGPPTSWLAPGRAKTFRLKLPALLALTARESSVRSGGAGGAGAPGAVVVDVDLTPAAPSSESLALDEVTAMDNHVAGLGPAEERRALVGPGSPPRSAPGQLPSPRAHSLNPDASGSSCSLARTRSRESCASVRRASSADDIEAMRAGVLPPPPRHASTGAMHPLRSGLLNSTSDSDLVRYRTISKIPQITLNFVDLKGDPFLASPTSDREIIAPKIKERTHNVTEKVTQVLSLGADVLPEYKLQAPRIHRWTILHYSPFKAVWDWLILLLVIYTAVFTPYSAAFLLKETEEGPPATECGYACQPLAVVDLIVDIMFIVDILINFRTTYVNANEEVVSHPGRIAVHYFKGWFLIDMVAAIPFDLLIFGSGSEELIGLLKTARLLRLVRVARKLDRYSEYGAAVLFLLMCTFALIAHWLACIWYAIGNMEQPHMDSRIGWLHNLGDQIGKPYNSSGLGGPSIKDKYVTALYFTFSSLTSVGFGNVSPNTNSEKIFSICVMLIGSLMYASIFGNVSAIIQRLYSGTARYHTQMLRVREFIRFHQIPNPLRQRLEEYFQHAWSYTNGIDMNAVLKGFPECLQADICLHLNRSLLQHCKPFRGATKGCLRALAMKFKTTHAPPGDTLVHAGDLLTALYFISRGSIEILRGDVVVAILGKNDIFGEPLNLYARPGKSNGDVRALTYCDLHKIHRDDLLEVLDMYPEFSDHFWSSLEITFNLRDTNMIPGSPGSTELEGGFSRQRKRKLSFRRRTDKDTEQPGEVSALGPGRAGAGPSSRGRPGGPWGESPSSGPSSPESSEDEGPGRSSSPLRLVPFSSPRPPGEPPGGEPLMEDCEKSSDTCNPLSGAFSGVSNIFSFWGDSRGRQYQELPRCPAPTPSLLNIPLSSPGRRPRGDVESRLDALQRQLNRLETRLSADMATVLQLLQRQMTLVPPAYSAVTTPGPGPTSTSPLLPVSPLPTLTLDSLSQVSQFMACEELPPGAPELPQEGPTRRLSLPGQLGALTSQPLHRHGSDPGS

The assay addresses Voltage-gated inwardly rectifying potassium channel KCNH2 (Homo sapiens, UniProt Q12809). The assay can be described thus: Inhibitory concentration against IKr potassium channel.
In turn, `CCCCCCCN(CC)CCCCc1ccc([N+](=O)[O-])cc1` had an IC50 of 0.01 µM.
The same measure for `COc1ccc(CCNCCCNC(=O)c2ccc([N+](=O)[O-])cc2)cc1OC`: 0.42 µM; for `COc1cc2c(cc1OC)C(Cc1ccc(O)c(Oc3ccc(C[C@@H]4c5cc(OC)c(OC)cc5CCN4C)cc3)c1)N(C)CC2` (single isomer, unassigned) [DAURICINE]: 16 µM; for `CCCNCC(O)COc1ccc(O)cc1C(=O)CCc1ccccc1` (stereo not drawn) [5-HYDROXY PROPAFENONE]: 40 µM.
As to `CN1CCN(CCCCN2C(=O)CN(/N=C/c3ccc(-c4ccc(Cl)cc4)o3)C2=O)CC1` [AZIMILIDE], the IC50 turned out to be 0.4 µM.
For the compound `Nc1ccncc1` [DALFAMPRIDINE], inhibition was half-maximal at 4400 µM (IC50).
Under `CCCCc1oc2ccc(NS(C)(=O)=O)cc2c1C(=O)c1ccc(OCCCN(CCCC)CCCC)cc1` [DRONEDARONE] stands 3 µM; under `CCCCN(CCCC)CC(O)c1cc(Cl)cc2c1-c1ccc(Cl)cc1C2=Cc1ccc(Cl)cc1` (stereo not drawn) [LUMEFANTRINE], 8.1 µM; under `NCC(O)COc1ccccc1C(=O)CCc1ccccc1` (stereo not drawn) [N-DEPROPYL-PROPAPHENONE], 44 µM.
`CCC1(c2ccccc2)C(=O)NC(=O)NC1=O` [PHENOBARBITAL] returned an IC50 of 3000 µM.
In turn, `COc1ccc(CN(CCN(C)C)c2ccccn2)cc1` [PYRILAMINE] yielded an IC50 of 1.1 µM.
`COc1ccc(C2CCN(CC[C@H]3CCOc4ccccc43)CC2)cc1OC` [TERIKALANT]: the IC50 came out at 0.03 µM. This IC50 is about 37-fold lower than that of the compound before.
`COc1ccc(C(=O)N2CCN(c3ccc4c(c3)CCC(=O)N4)CC2)cc1OC` [VESNARINONE] came in with an IC50 of 18 µM.
